From publication PMC5666424, “Marine-Derived 2-Aminoimidazolone Alkaloids. Leucettamine B-Related Polyandrocarpamines Inhibit Mammalian and Protozoan DYRK & CLK Kinases” (Marine Drugs, 2017)

Legend:
Assay in all cases: KinomeScan
Assay type in all cases: binding
Settings in all cases: 1 μM
[1] = biological target: T1, ABL1(T315I)-phosphorylated (Homo sapiens, UniProt P00519, T315I)
T1 construct: purchased DiscoverX (KINOMEscan)

FLT3(K663Q) = biological target: T2, FLT3(K663Q) (Homo sapiens, UniProt P36888, K663Q)
T2 construct: purchased DiscoverX (KINOMEscan)

SLK = biological target: T3, SLK (Homo sapiens, UniProt Q9H2G2)
T3 construct: purchased DiscoverX (KINOMEscan)

AMPK-alpha1 = biological target: T4, AMPK-alpha1 (Homo sapiens, UniProt Q13131)
T4 construct: purchased DiscoverX (KINOMEscan)

MTOR = biological target: T5, MTOR (Homo sapiens, UniProt P42345)
T5 construct: purchased DiscoverX (KINOMEscan)

MAP4K4 = biological target: T6, MAP4K4 (Homo sapiens, UniProt O95819)
T6 construct: purchased DiscoverX (KINOMEscan)

GRK4 = biological target: T7, GRK4 (Homo sapiens, UniProt P32298)
T7 construct: purchased DiscoverX (KINOMEscan)

DYRK1A = DYRK1A (Homo sapiens, UniProt Q13627)
ERK4 = biological target: T8, ERK4 (Homo sapiens, UniProt P31152)
T8 construct: purchased DiscoverX (KINOMEscan)
T8 sequence (P31152 whole entry): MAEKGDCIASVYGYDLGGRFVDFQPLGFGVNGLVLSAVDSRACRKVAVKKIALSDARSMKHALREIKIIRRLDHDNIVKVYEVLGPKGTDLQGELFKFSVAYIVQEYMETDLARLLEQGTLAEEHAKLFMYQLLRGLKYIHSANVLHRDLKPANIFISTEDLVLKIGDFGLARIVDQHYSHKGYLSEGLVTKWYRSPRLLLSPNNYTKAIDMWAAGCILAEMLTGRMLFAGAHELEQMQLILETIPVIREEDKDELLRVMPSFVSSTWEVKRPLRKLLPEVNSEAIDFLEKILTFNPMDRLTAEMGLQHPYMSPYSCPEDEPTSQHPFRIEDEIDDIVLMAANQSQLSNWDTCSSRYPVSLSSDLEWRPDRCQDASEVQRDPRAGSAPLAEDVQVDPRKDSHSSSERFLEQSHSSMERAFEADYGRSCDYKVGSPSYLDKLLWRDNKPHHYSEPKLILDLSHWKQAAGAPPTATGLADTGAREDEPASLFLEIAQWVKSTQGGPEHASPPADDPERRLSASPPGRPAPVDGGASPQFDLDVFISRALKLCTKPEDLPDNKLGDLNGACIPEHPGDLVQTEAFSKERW

CDK5 = biological target: T9, CDK5 (Homo sapiens, UniProt Q00535)
T9 construct: purchased DiscoverX (KINOMEscan)

[2] = biological target: T10, EGFR(L747-E749del, A750P) (Homo sapiens, UniProt P00533, A750P/DEL747-749)
T10 construct: purchased DiscoverX (KINOMEscan)

YSK1 = biological target: T11, YSK1 (Homo sapiens, UniProt O00506)
T11 construct: purchased DiscoverX (KINOMEscan)
T11 sequence (O00506 whole entry): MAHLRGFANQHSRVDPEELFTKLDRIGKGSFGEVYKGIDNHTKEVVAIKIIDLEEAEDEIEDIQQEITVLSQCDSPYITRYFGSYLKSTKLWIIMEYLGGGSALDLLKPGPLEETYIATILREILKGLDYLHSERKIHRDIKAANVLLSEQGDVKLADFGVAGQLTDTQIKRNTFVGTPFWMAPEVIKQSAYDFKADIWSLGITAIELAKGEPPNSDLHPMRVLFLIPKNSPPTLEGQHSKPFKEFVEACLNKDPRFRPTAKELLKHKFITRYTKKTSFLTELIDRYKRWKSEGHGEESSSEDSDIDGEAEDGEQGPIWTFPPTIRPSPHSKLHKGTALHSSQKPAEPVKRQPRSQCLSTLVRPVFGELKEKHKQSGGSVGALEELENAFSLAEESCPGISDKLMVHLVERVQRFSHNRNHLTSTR

DYRK2 = biological target: T12, DYRK2 (Homo sapiens, UniProt Q92630)
T12 sequence (Q92630 1-601): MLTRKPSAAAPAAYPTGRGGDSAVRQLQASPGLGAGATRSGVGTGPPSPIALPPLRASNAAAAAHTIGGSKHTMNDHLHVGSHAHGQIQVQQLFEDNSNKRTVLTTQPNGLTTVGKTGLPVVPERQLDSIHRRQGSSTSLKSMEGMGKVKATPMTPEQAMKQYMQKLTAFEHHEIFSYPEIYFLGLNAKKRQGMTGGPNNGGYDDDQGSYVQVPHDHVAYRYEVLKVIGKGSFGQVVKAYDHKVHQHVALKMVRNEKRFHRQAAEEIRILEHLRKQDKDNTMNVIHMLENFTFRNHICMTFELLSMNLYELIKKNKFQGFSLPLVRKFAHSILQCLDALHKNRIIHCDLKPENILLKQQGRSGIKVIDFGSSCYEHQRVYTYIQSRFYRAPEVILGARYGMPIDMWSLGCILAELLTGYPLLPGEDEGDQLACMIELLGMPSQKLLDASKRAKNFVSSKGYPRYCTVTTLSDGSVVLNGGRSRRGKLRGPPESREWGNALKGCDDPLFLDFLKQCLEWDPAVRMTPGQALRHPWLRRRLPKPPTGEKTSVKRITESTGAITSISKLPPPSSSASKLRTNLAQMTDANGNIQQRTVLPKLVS

SRPK3 = biological target: T13, SRPK3 (Homo sapiens, UniProt Q9UPE1)
T13 construct: purchased DiscoverX (KINOMEscan)
T13 sequence (Q9UPE1 whole entry): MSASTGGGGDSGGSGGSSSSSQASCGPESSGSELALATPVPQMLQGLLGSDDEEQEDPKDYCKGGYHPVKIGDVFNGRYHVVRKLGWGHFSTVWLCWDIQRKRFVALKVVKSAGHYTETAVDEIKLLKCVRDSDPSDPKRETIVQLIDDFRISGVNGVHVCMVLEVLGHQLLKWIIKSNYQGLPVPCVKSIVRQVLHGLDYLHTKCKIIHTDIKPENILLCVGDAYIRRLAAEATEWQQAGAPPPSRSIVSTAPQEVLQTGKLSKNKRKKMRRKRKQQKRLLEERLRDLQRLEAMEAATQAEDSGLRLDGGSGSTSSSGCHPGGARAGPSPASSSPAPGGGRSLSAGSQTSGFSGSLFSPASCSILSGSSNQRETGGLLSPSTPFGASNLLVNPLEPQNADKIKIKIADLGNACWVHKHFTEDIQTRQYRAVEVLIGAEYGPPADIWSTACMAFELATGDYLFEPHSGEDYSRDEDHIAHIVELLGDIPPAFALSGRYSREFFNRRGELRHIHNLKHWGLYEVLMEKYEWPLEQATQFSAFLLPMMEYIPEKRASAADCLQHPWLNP

ZAP70 = biological target: T14, ZAP70 (Homo sapiens, UniProt P43403)
T14 construct: purchased DiscoverX (KINOMEscan)

TLK1 = biological target: T15, TLK1 (Homo sapiens, UniProt Q9UKI8)
T15 construct: purchased DiscoverX (KINOMEscan)
T15 sequence (Q9UKI8 whole entry): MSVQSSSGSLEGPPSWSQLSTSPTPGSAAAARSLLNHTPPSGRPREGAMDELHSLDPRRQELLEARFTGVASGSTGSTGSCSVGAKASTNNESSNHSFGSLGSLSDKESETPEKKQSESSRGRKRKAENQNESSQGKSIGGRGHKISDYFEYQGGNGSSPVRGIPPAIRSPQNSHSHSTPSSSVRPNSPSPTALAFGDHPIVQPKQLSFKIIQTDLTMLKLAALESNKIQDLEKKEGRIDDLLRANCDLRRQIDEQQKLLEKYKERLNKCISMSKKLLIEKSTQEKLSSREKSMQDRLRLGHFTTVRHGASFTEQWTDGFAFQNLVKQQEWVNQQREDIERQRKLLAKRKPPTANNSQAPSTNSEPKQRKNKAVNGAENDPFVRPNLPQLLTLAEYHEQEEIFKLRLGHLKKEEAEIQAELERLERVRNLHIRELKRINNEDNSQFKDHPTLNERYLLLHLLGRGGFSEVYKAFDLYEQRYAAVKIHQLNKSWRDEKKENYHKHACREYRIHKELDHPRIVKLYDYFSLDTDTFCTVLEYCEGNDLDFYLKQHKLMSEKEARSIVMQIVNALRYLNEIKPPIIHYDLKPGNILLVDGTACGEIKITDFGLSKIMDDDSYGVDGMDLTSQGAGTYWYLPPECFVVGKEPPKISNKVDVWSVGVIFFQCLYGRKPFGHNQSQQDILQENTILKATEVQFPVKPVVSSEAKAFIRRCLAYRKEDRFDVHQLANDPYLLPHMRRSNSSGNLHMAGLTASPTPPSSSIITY

NEK6 = biological target: T16, NEK6 (Homo sapiens, UniProt Q9HC98)
T16 construct: purchased DiscoverX (KINOMEscan)
T16 sequence (Q9HC98 whole entry): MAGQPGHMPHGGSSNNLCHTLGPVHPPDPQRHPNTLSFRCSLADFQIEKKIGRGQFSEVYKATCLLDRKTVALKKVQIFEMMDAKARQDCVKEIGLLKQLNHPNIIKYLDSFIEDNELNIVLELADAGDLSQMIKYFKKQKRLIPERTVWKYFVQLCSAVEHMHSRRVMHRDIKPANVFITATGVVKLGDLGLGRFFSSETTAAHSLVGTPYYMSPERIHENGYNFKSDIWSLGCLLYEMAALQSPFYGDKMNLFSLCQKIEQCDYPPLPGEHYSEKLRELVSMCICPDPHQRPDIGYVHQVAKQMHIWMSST

KIT(D816V) = biological target: T17, KIT(D816V) (Homo sapiens, UniProt P10721, D816V)
T17 construct: purchased DiscoverX (KINOMEscan)

MAP3K1 = biological target: T18, MAP3K1 (Homo sapiens, UniProt Q13233)
T18 construct: purchased DiscoverX (KINOMEscan)

[3] = biological target: T19, RPS6KA4 (Kin.Dom.2-C-terminal) (Homo sapiens, UniProt O75676)
T19 construct: Kin.Dom.2-C-terminal; purchased DiscoveRx (KinomeScan, San Diego, CA, USA)
T19 sequence (O75676 411-674 limits assumed): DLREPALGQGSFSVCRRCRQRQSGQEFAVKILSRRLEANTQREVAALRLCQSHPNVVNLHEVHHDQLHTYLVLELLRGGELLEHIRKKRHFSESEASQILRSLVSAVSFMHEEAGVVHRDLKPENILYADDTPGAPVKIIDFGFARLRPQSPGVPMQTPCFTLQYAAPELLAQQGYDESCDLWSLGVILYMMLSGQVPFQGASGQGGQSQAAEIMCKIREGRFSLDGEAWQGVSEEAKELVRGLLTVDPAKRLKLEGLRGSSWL

TLK2 = biological target: T20, TLK2 (Homo sapiens, UniProt Q86UE8)
T20 construct: purchased DiscoverX (KINOMEscan)
T20 sequence (Q86UE8 whole entry): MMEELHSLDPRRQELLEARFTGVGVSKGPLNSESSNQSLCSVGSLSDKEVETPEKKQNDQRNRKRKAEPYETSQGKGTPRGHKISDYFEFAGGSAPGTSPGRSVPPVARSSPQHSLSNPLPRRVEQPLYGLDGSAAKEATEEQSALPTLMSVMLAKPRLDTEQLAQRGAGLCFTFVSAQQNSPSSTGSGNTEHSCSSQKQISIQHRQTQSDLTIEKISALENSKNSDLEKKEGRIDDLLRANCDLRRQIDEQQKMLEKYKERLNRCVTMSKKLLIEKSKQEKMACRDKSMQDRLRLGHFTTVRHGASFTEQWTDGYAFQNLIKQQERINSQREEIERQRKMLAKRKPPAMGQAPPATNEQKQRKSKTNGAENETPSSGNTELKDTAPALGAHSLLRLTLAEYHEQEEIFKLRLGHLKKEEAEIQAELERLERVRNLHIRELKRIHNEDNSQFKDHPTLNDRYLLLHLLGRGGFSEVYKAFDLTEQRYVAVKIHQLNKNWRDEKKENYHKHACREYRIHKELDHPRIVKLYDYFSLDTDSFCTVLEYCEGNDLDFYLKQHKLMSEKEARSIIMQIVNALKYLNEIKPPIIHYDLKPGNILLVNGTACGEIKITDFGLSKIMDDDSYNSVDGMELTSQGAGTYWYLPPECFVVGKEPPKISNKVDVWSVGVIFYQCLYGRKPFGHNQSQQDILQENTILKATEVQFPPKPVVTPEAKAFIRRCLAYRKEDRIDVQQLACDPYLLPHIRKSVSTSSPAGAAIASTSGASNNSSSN

INSRR = biological target: T21, INSRR (Homo sapiens, UniProt P14616)
T21 construct: purchased DiscoverX (KINOMEscan)

ULK1 = biological target: T22, ULK1 (Homo sapiens, UniProt O75385)
T22 construct: purchased DiscoverX (KINOMEscan)

BRSK2 = biological target: T23, BRSK2 (Homo sapiens, UniProt Q8IWQ3)
T23 construct: purchased DiscoverX (KINOMEscan)

LTK = biological target: T24, LTK (Homo sapiens, UniProt P29376)
T24 construct: purchased DiscoverX (KINOMEscan)

HIPK2 = biological target: T25, HIPK2 (Homo sapiens, UniProt Q9H2X6)
T25 construct: purchased DiscoverX (KINOMEscan)

TIE1 = biological target: T26, TIE1 (Homo sapiens, UniProt P35590)
T26 construct: purchased DiscoverX (KINOMEscan)
T26 sequence (P35590 22-1138): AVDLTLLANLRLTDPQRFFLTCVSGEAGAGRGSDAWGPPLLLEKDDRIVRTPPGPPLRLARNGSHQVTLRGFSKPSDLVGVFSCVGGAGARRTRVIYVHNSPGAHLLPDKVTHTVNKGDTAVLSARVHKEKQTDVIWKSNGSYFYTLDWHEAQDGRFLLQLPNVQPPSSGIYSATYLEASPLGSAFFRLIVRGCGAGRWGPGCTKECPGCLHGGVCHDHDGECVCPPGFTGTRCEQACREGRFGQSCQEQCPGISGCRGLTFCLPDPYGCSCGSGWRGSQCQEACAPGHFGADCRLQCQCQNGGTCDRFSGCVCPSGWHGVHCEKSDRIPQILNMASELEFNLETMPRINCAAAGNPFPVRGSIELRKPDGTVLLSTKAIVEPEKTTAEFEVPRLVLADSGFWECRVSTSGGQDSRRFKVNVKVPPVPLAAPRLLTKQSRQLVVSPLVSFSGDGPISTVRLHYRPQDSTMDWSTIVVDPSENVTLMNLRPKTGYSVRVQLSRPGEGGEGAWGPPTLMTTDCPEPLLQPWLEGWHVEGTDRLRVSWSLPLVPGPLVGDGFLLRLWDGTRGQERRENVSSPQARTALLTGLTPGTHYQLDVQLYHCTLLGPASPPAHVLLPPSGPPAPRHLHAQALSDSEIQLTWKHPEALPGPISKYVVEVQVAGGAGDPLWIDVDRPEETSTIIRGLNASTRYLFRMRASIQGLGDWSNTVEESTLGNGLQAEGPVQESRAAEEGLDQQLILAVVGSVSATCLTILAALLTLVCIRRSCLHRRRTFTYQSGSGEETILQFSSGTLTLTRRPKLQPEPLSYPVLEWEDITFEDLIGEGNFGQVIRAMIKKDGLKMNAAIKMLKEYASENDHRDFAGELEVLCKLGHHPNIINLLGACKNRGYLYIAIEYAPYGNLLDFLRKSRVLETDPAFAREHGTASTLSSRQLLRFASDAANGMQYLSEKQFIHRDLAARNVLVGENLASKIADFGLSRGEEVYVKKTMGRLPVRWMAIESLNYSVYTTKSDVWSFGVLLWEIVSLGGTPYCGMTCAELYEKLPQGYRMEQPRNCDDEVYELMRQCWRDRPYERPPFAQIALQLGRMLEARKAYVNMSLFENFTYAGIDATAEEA

CLK3 = biological target: T27, CLK3 (Homo sapiens, UniProt P49761)
T27 construct: purchased DiscoverX (KINOMEscan)

`COc1cc(/C=C2\N=C(N)NC2=O)ccc1O` [Polyandrocarpamine A] was tested. Which Score [1] did it give?
Its Score is 85.

And the Score (FLT3(K663Q))?
Its Score is 100.

And the Score (SLK)?
The Score was 100.

What about the Score (AMPK-alpha1) of the same compound?
Its Score is 100.

And the Score (MTOR)?
Its Score is 84.

What about the Score (MAP4K4) of the same compound?
The Score was 98.

And the Score (GRK4)?
The Score was 100.

And the Score (DYRK1A)?
Its Score is 3.

What about the Score (ERK4) of the same compound?
The Score was 100.

What about the Score (CDK5) of the same compound?
The Score was 100.

What about the Score [2] of the same compound?
Its Score is 100.

What about the Score (YSK1) of the same compound?
Its Score is 100.

And the Score (DYRK2)?
The Score was 24.

What about the Score (SRPK3) of the same compound?
Its Score is 100.

What about the Score (ZAP70) of the same compound?
Its Score is 100.

And the Score (TLK1)?
The Score was 94.

And the Score (NEK6)?
The Score was 100.

And the Score (KIT(D816V))?
The Score was 100.

And the Score (MAP3K1)?
The Score was 100.

And the Score [3]?
Its Score is 22.

And the Score (TLK2)?
The Score was 100.

What about the Score (INSRR) of the same compound?
Its Score is 81.

What about the Score (ULK1) of the same compound?
The Score was 94.

What about the Score (BRSK2) of the same compound?
The Score was 100.

What about the Score (LTK) of the same compound?
The Score was 100.

What about the Score (HIPK2) of the same compound?
The Score was 50.

What about the Score (TIE1) of the same compound?
The Score was 81.

And the Score (CLK3)?
Its Score is 69.
